According to patent publication US12152034B2, “FGFR inhibitors and methods of making and using the same” (Relay Therapeutics, Inc., priority 2020, dated 2024):
Entries after “also recorded” stand apart in the source; their conditions may differ. Each block holds one compound with its values, some of them ahead of it.

How the values were obtained:
Assay type in all cases: physicochemical
[1] = Solubility in organic solvents quoted in competitive suspension equilibration studies; details: organic solvent or mixture
[2] = Solubility in Fasted State Simulated Intestinal Fluid (FaSSIF) and final pH in solution, salt screen of compound I-2; details: for Final pH: final pH in solution of the FaSSIF solubility sample
Procedure: (§1) The free base of Compound I-1 (compound I-2, 30 mg) was suspended in IPA (20 Vol., 600 μl at 50° C.). The suspensions were then cooled down to 5° C. at 0.1° C./min and were held at this temperature for 16 hrs. Stirring (500 rpm) was maintained throughout. Any gums that formed were maturated between 25 and 50° C. (4 hours at each temperature for 24 hrs). The suspensions were isolated by filtration under suction and air dried then analysed by XRPD. Any new patterns identified by XRPD were analysed further by NMR, TGA, DSC and stability at 40 C/75% RH for 1 week.
Several samples were analyzed for solubility in Fasted State Simulated Intestinal Fluid (FaSSIF) and final pH in solution.

[3] = Hygroscopicity suggested by Thermal Gravimetric Analysis (TGA) weight loss; details: suggested by TGA weight loss / 1H NMR solvent content
Procedure: Thermal Gravimetric Analysis (TGA): TGA data was collected on a TA Instruments Q5000 TGA. A predefined amount of the sample, 2.0 to 10.0 mg, was placed in an aluminum pan and heated at 10° C./minute from 40° C. to 300° C., or varied as experimentation dictated. A purge of dry nitrogen at 25 ml/minute was maintained over the sample. The instrument control and data acquisition are acquired using Q Advantage software release version 5.5.23. The data was processed and presented using the TA Universal Analysis 2000 software version 4.5A build 4.5.0.5.

[4] = Storage at 40° C./75% RH for 7 days (one week), form checked by XRPD; details: 40° C./75% RH, one week (7 days)
Procedure: as §1, with “The” for “The free base of Compound I-1 (compound I-2, 30 mg) was suspended in IPA (20 Vol., 600 μl at 50° C.). The”

[5] = Solubility assessment in solvents by aliquot addition (5-40 vol, 25° C., then heating); details: for solubility in the solvents tested (in words): 13 solvents, up to 40 vol; for Observation after treatment: 40 vol
Procedure: Compound II-1 (40 mg) was treated with an aliquot of solvent (200 μl for 5 vol, 400 μl for 10 vol, 800 μl for 20 vol) and left to stir at 25° C. for 15 minutes. After 15 minutes, suspensions were treated with another aliquot of solvent and left to stir for the same duration again. Any solutions were removed from stirring and further solvent additions. This procedure was repeated up to 40 vol.
At 40 vol, any remaining suspensions were heated to 40° C. at a rate of 10° C./min. Samples that remained as suspensions at 40° C. were moved to the maturation chamber (RT/50° C.) for 4 days. All solutions from solvent additions were heated to 50° C. before cooling to 5° C. at a rate of 0.1° C./min, then held at 5° C. overnight. […]

[6] = Solubility measurements in SGF, FeSSIF and FaSSIF with XRPD of residual solids
Excerpt: The results from the solubility measurements in simulated gastric fluid (SGF), simulated fed state conditions in the small intestines (FeSSIF), and simulated fasting state conditions in the small intestines fluid (FaSSIF) are summarised in Table 12. The salts show reduced solubility in SGF compared to the free form.
Crystalline FB Form A, HCl Form A, and the sufate salt Form A were scaled up for solubility analysis.
HCl Form A was successfully scaled up for solubility analysis.

[7] = listed as Compound III-1 Form A
[8] = listed as Compound III-1 Form B

Solubility ([1]; ethanol): 2300 µg/mL
Solubility ([1]; methanol): 18700 µg/mL
Solubility ([2]; Fasted State Simulated Intestinal Fluid (FaSSIF), fassif, thermodynamic from solid, Fasted State Simulated Intestinal Fluid, solids from salt screen in IPA): 5.1 µg/mL
Final pH [2]: 4.06
SMILES: C=C(C)C(=O)Nc1ccc(-c2c(-c3ccc(Oc4nccc(C)n4)c(F)c3)c3c(N)ncnc3n2C)cc1.Cl [Compound I-1, N-(4-(4-amino-5-(3-fluoro-4-((4-methylpyrimidin-2-yl)oxy)phenyl)-7-methyl-7H-pyrrolo[2,3-d]pyrimidin-6-yl)phenyl)methacrylamide hydrochloride]

Solubility in FaSSIF ([2]; Fasted State Simulated Intestinal Fluid, solids from salt screen in IPA, listed as HBr - Form A): 4.5 µg/mL
Final pH ([2]; listed as HBr - Form A): 5.5
SMILES: C=C(C)C(=O)Nc1ccc(-c2c(-c3ccc(Oc4nccc(C)n4)c(F)c3)c3c(N)ncnc3n2C)cc1 [Compound I-3]

Solubility in FaSSIF ([2]; Fasted State Simulated Intestinal Fluid, solids from salt screen in IPA, listed as Sulfate - Form B): 1.2 µg/mL
Final pH ([2]; listed as Sulfate - Form B): 5.86
SMILES: C=C(C)C(=O)Nc1ccc(-c2c(-c3ccc(Oc4nccc(C)n4)c(F)c3)c3c(N)ncnc3n2C)cc1 [Compound I-4]

Solubility in FaSSIF ([2]; Fasted State Simulated Intestinal Fluid, solids from salt screen in IPA, listed as Mesylate - Form A): 6.5 µg/mL
Final pH ([2]; listed as Mesylate - Form A): 4.82
SMILES: C=C(C)C(=O)Nc1ccc(-c2c(-c3ccc(Oc4nccc(C)n4)c(F)c3)c3c(N)ncnc3n2C)cc1 [Compound I-6]

SMILES: C=C(C)C(=O)Nc1ccc(-c2c(C3=CC[C@H](C(=O)N4CCCC4)CC3)c3c(N)ncnc3n2C)c(C)c1 [Compound II-1, (R)—N-(4-(4-amino-7-methyl-5-(4-(pyrrolidine-1-carbonyl)cyclohex-1-en-1-yl)-7H-pyrrolo[2,3-d]pyrimidin-6-yl)-3-methylphenyl)methacrylamide]
hygroscopicity (in words) ([3]; listed as Compound 1 Pattern 2): hygroscopic
hygroscopicity (in words) ([3]; listed as Compound II-1 Form A): slightly hygroscopic
XRPD after storage at 40° C./75% RH for 7 days ([4]; listed as Compound II-1 Form A): no change; also recorded: Unchanged
XRPD after storage at 40° C./75% RH for 7 days ([4]; listed as Compound II-1 Form B): Unchanged
solubility (solvent volumes to give a clear solution) ([5]; 10% H2O/IPA, 25° C.): 10 vol
solubility in the solvents tested (in words) [5]: reasonable solubility in polar solvents
solubility (solvent volumes to give a clear solution) ([5]; THF, 25° C.): 20 vol
solubility (solvent volumes to give a clear solution) ([5]; ethanol, 25° C.): 20 vol

SMILES: C=C(C)C(=O)Nc1ccc(-c2c(C3=CC[C@H](C(=O)N4CCCC4)CC3)c3c(N)ncnc3n2C)c(C)c1.CS(=O)(=O)O [Compound II-5]
hygroscopicity (in words) [3]: hygroscopic
XRPD after storage at 40° C./75% RH for 7 days [4]: no change

hygroscopicity (in words) [3, 7]: potentially hygroscopic
hygroscopicity (in words) [3, 8]: possibly hygroscopic
XRPD of residual solids after solubility measurement ([6]; all media (SGF, FeSSIF, FaSSIF)): remained unchanged
solubility in FaSSIF (in words) ([6]; simulated fasting state intestinal fluid): lowest solubility
XRPD after storage at 40° C./75% RH for 7 days [4, 7]: no change in form
XRPD after storage at 40° C./75% RH for 7 days ([4]; listed as Compound III-1 Form C): no change in form
Observation after treatment ([5]; 2-Propanol, after maturation (RT/50° C.) 4 days): Suspension
Observation after treatment ([5]; 10% Water/IPA, after maturation (RT/50° C.) 4 days): Suspension
Observation after treatment ([5]; 10% Water/MeCN, after cooling from 50° C. to 5° C.): Clear
solubility (solvent volumes to give a clear solution) ([5]; 10% water/MeCN, 50° C.): 40 vol
solubility in the solvents tested (in words) [5]: low solubility
Observation after treatment ([5]; Acetone, after cooling from 50° C. to 5° C.): Very thin
Observation after treatment ([5]; Ethanol, after maturation (RT/50° C.) 4 days): Suspension
Observation after treatment ([5]; Ethyl acetate, after maturation (RT/50° C.) 4 days): Suspension
Observation after treatment ([5]; Isopropyl acetate, after maturation (RT/50° C.) 4 days): Suspension
Observation after treatment ([5]; MEK, after maturation (RT/50° C.) 4 days): Suspension
Observation after treatment ([5]; Methanol, after cooling from 50° C. to 5° C.): Very thin
Observation after treatment ([5]; TBME, after maturation (RT/50° C.) 4 days): Suspension
solubility (solvent volumes to give a clear solution) ([5]; THF, 25° C.): 40 vol
Observation after treatment ([5]; THF, after cooling from 50° C. to 5° C.): Clear
Observation after treatment ([5]; Water, after maturation (RT/50° C.) 4 days): Suspension
solubility (solvent volumes to give a clear solution) ([5]; acetone, 50° C.): 40 vol
solubility (solvent volumes to give a clear solution) ([5]; methanol, 50° C.): 40 vol
Observation after treatment ([5]; n-Heptane, after maturation (RT/50° C.) 4 days): Suspension
SMILES: C#Cc1cc(OC)c(-c2c(-c3ccc(Oc4nccc(C)n4)c(F)c3)c3c(C)ncnc3n2C)cn1 [Compound III-1, 6-(6-ethynyl-4-methoxypyridin-3-yl)-5-(3-fluoro-4-((4-methylpyrimidin-2-yl)oxy)phenyl)-4,7-dimethyl-7H-pyrrolo[2,3-d]pyrimidine]
XRPD after storage at 40° C./75% RH for 7 days [4, 8]: conversion to Form A (plus additional peaks)
